The test system of one test is Wild mustard. Briefly: Ex35 PRE 2,4-DC + dimethachlor + napropamide, % control 28 DAT, Colby. The class given is in vivo, Sinapis arvensis. The text has this: Crops screened were wheat and canola.
For the next test, the system named is Cheat. Kind of test: Ex18 PRE 2,4-DC + clomazone, % control 28 DAT, Colby. It counts as in vivo, Bromus secalinus. The text has this:
Additional treatments included application of metazachlor (Butisan®, 43.1%) at 750 g ai/ha, napropamide (Devrinol DF®, 50%) at 1260 g ai/ha, and dimethachlor (Teridox®, 48%) at 1000 g ai/ha. […] Treatments were applied just after the seeding of annual bluegrass, cheat, wild oat, quackgrass, field violet, blackgrass, littleseed canarygrass, silky windgrass, yellow foxtail, and goosegrass. […] Flats were watered and fertilized routinely after treatment application. Each treatment was replicated three times.

A further test concerns weeds; Wheat and Barley. Kind of test: Ex36 POST greenhouse. It counts as in vivo. The following applies: rate in the words. The text has this:
(§1) Crops screened were wheat and barley.

For a further test, the system named is Italian ryegrass. Briefly: Ex36 POST 2,4-DC + metsulfuron-methyl, % control 28 DAT, Colby. The class given is in vivo, Lolium perenne L. ssp. multiflorum.
Excerpt: as §1

The test system of a further test is weeds; barley and wheat. Briefly: Ex40 POST greenhouse. The class given is in vivo. The following applies: rate in the words. The method, then: Treatments were applied to barley and wheat crops.
Non-ionic surfactant (NIS) was added to all treatments at 0.5% v/v. All plant species were direct seeded into 3″ plastic pots using metro-mix as growth media. At treatment common lambsquarters was 1.75″, common chickweed was 2″, wild mustard was 2.25″, wild oat was 5.5″, wild buckwheat was 2-5″, Italian ryegrass was 2-3″, wheat was 5.5″ and barley was 4.5″ in height. Plants were watered well before application and not watered 24 h after application. Plants were watered and fertilized routinely after treatment application. Each treatment was replicated four times. Treated flats were placed in randomized block design in the greenhouse.

For a further test, the system named is Littleseed canarygrass. Kind of test: Ex34 PRE 2,4-DC + napropamide, % control, Colby. It counts as in vivo, Phalaris minor. The following applies: 28 DAT. The text has this:
(§2) Thereafter flats were watered and fertilized routinely.

Another test concerns Blackgrass. Kind of test: Ex13 PRE 2,4-DC + diflufenican, % control 28 DAT, Colby. The class given is in vivo, Alopecurus myosuroides. The text has this: Pyroxasulfone (KIH-485, 85%) at 74.3 g ai/ha, pendimethalin (Prowl 3.3EC, 37.4%) at 1200 g ai/ha, or a premix of chlorsulfuron plus metsulfuron-methyl (Report Extra, 75%) at 15.8 g ai/ha were applied as commercial standards. […] Treatments were replicated 3 times and flats were watered after planting before the treatment and lightly watered after treatment application. Thereafter flats were watered and fertilized routinely.

A further test concerns weeds; canola, and wheat. Briefly: Ex39 PRE greenhouse. The following applies: weed and rate in the words. It counts as in vivo.
Excerpt: as §2

Consider `CC1(C)CON(Cc2ccc(Cl)cc2Cl)C1=O` [2,4-DC, 2-(2,4-dichlorophenyl)methyl-4,4-dimethyl-3-isoxazolidinone], for which the X with Wild mustard (2,4-DC alone 50 g ai/ha) was 12%; in the test on Wild mustard (2,4-DC alone 100 g ai/ha), 37%; with Wild mustard (2,4-DC alone 200 g ai/ha), 47%; with Cheat (2,4-DC alone 125 g ai/ha), 6%; in the test with Cheat (2,4-DC alone 170 g ai/ha) it was 11%; in the test on Cheat (2,4-DC alone 210 g ai/ha), 12%. For the same molecule, the X was found to be 25% in the test with Cheat (2,4-DC alone 250 g ai/ha); 22% with Italian ryegrass (2,4-DC alone 50 g ai/ha); 18% with Italian ryegrass (2,4-DC alone 100 g ai/ha); 29% with Italian ryegrass (2,4-DC alone 200 g ai/ha); 8% in the test on Littleseed canarygrass (2,4-DC alone 31 g ai/ha); 12% in the test with Littleseed canarygrass (2,4-DC alone 63 g ai/ha). Also, the X with Littleseed canarygrass (2,4-DC alone 125 g ai/ha) amounted to 18%; in the test on Littleseed canarygrass (2,4-DC alone 250 g ai/ha), 27%; with Littleseed canarygrass (2,4-DC alone 375 g ai/ha), 53%; in the test on Blackgrass (2,4-DC alone 125 g ai/ha), 23%; in the test with Blackgrass (2,4-DC alone 170 g ai/ha), 53%; with Blackgrass (2,4-DC alone 210 g ai/ha), 66%. In addition, the X in the test on Blackgrass (2,4-DC alone 250 g ai/ha) came to 68%. The “weed control / crop safety in words” value with weeds; Wheat and Barley is “alone applied to barley was safe at 50 g ai/ha”; with weeds; barley and wheat, “applied alone was safe at all rates on both wheat and barley”. The “weed control in words” value with weeds; canola, and wheat is “alone at ≥50 g ai/ha controlled (≥85%) Canada thistle, dandelion, or common chickweed”.
